Ki data for eight molecules are collected here from ChEMBL document CHEMBL1158318, “Two 5-HT 1A Receptor-Interactive Tryptamine Derivatives from the Unripe Fruit of Evodia rutaecarpa” (J Nat Prod, 1997).

Usually Ki stands for a dissociation constant, usually derived from enzyme kinetics or from competition with a known ligand. A high value points to a looser hold on the target.

The target of this assay is T1, 5-hydroxytryptamine receptor 1A (Homo sapiens, UniProt P08908).
T1 sequence (P08908 whole entry): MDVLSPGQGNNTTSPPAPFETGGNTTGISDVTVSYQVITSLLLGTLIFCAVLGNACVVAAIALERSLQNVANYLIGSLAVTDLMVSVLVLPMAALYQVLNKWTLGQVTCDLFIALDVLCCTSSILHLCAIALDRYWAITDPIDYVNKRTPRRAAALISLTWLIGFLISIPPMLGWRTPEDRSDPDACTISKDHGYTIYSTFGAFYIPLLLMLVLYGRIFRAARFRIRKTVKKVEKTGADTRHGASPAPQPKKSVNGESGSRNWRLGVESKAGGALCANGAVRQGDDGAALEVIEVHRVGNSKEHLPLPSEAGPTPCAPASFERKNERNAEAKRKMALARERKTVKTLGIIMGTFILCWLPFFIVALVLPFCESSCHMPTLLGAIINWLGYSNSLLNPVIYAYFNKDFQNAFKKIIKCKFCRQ
Kind of assay: Displacement of [3H]8-OH-DPAT from 5HT1A receptor by vacuum filtration. (Displacement assays read how much labelled ligand stays bound in the presence of the test substance.)

`CNCC(O)c1ccc(O)cc1` (stereo not drawn) [OXEDRINE] came in with a Ki of 63 µM.

Molecule `CN1c2ccccc2C(=O)N2CCc3c([nH]c4ccccc34)[C@H]21` [EVODIAMINE] yielded an inhibitory constant (Ki) greater than 100 µM.

`O=c1c(O[C@@H]2O[C@H](CO)[C@H](O)[C@H](O)[C@H]2O)c(-c2ccc(O)c(O)c2)oc2cc(O)cc(O)c12` [HYPEROSIDE] registered an inhibitory constant (Ki) greater than 100 µM.

Regarding `COc1cc(-c2oc3cc(O)cc(O)c3c(=O)c2O[C@@H]2O[C@H](CO)[C@H](O)[C@H](O)[C@H]2O)ccc1O`, the inhibitory constant (Ki) is greater than 100 µM.

`CNc1ccccc1C(=O)N1CCc2c([nH]c3ccccc23)C1=O` [RHETSININE] returned a Ki of 32 µM.

As for `C[n+]1c2n(c(=O)c3ccccc31)CCc1c-2[nH]c2ccccc12` [DEHYDROEVODIAMINE], the Ki was determined as 36 µM.

Consider `O=c1c2ccccc2nc2n1CCc1c-2[nH]c2ccccc12` [RUTAECARPINE], for which the Ki was greater than 100 µM.

`CC1(C)O[C@H]2CC(=O)OC[C@]23[C@H]2CC[C@@]4(C)[C@H](c5ccoc5)OC(=O)[C@H]5O[C@]54[C@]2(C)C(=O)C[C@@H]13` [LIMONIN] returned a Ki greater than 100 µM.
